The structures appear in SMILES notation.

In the test the test system is Mycobacterium tuberculosis CDC1551. It is filed as in vivo. The following applies: in vivo, 50 mg/kg.

Consider `CCOc1cc([C@@H](CS(C)(=O)=O)N2Cc3cccc(NC(=O)C4CC4)c3C2=O)ccc1OC` [CC-11050, N-[2-[(1S)-1-(3-ethoxy-4-methoxyphenyl)-2-(methylsulfonyl)ethyl]-2,3-dihydro-3-oxo-1H-isoindol-4-yl]-(9Cl) cyclopropanecarboxamide], for which the “Difference in number of lung CFUs versus untreated mice” value is “No significant difference”. Moreover, the Lung bacillary load entry (po) is on record as “about 5.5 log10”.

For the origin of these results see PMC4911353, “Pharmacologic Inhibition of Host Phosphodiesterase-4 Improves Isoniazid-Mediated Clearance of Mycobacterium tuberculosis” (Frontiers in Immunology, 2016).
